Data published in US9931367B2, “Uses of cistanche tubulosa extract and isoacteoside in protecting muscle” (SINPHAR TIAN-LI PHARMACEUTICAL CO., LTD. (HANGZHOU), priority 2016, dated 2018).

Experiments:
[1] = system: C2C12 cells with TNF-α induced injury; experiment: Protection of C2C12 cells against TNF-α induced injury (survival rate, MMP, intracellular ROS); format: cell-based, mice; conditions: pre-treated 6 h, then 10 ng/mL TNF-α 4 days
Experimental: C2C12 cells were cultured in H-DMEM medium until 80% confluence was attained. Thereafter, the cells were separated into eleven groups, wherein seven groups thereof were provided with the Cistanche tubulosa extract (CIS) solution (dissolved in DMSO) to provide final concentrations of 0, 1, 5, 10, 50, 100, 500 μg/mL, respectively, and then pre-treatment was carried out for 6 hours; the other three groups were provided with branched chain amino acids (BCAA; served as a positive control) to provide final concentrations of 0.1, 1 or 10 μg/mL respectively, and then pre-treatment was carried out for 6 hours; thereafter, the mediums of the above ten groups (seven groups provided with CIS and three groups provided with BCAA) were replaced by differentiation mediums supplemented with 2% horse serum, and TNA-α was then added into those mediums to provide a final concentration of 10 ng/mL, and then co-treated with differentiation medium for 4 days; the last group served as a control group, which was not treated with the Cistanche tubulosa extract, BCAA, or TNA-α. Finally, the survival rates, MMPs and intracellular ROSs of the C2C12 cells in each group were measured. The control group served as a basis for calculating the relative survival rates, MMPs, and intracellular ROSs of the other groups to determine the effective concentration of Cistanche tubulosa extract for providing a protective effect against the TNF-α induced muscle cell injury. The results are shown in FIG. 3 and FIG. 4 (all the data are presented as average values±SEM, n=6, analyzed with a t-test, *p<0.05, **p<0.01, ***p<0.001).
According to the results of Example 1, echinacoside (Ech), verbascoside (VB) and isoacteoside (Iso) are the main ingredients of the Cistanche tubulosa extract. To investigate whether the echinacoside, verbascoside and isoacteoside have the effect of protecting muscles, the echinacoside, verbascoside and isoacteoside (all purchased from ChromaDex company, U.S.) were dissolved in DMSO to provide a echinacoside solution, a verbascoside solution and a isoacteoside solution. C2C12 cells were cultured in H-DMEM medium until 80% confluence was attained. Thereafter, the cells were separated into eighteen groups and treated as follows: • (1) Control group: cells were cultured in H-DMEM medium for 6 hours; thereafter the medium was replaced by a differentiation medium supplemented with 2% horse serum, and the cells were cultured for 4 days. • (2) TNF-α group: cells were cultured in H-DMEM medium for 6 hours; thereafter the medium was replaced by a differentiation medium supplemented with 2% horse serum, and TNF-α was then added into the medium (the final concentration was 10 ng/mL) to carry out a co-treatment for 4 days. • (3) TNF-α+echinacoside group (6 groups): the echinacoside solution was added into H-DMEM mediums to provide final concentrations of 1, 5, 10, 50, 100, or 500 μg/mL, respectively. The cells were pre-treated with the above mediums for 6 hours. Thereafter, the mediums were replaced by differentiation mediums supplemented with 2% horse serum, and TNF-α was then added into the mediums (the final concentration was 10 ng/mL) to carry out co-treatments for 4 days. • (4) TNF-α+verbascoside group (5 groups): the verbascoside solution was added into H-DMEM mediums to provide final concentration of 1, 5, 10, 50, or 100 μg/mL, respectively. The cells were pre-treated with the above mediums for 6 hours. Thereafter, the mediums were replaced by differentiation mediums supplemented with 2% horse serum, and TNF-α was then added into the mediums (the final concentration was 10 ng/mL) to carry out co-treatments for 4 days. • (5) TNF-α+isoacteoside group (5 groups): the isoacteoside solution was added into H-DMEM mediums to provide final concentrations of 1, 5, 10, 50, or 100 μg/mL, respectively. The cells were pre-treated with the above mediums for 6 hours. […]

C2C12 cells = experiment: Establishment of TNF-α induced muscle cell injury model (MMP, intracellular ROS); format: cell-based, mice; conditions: 4 days, relative to 0 ng/mL group
Experimental: Firstly, C2C12 cells (i.e., muscle cells of mice, purchased from ATCC) were cultured in H-DMEM medium (purchased from Sigma company) until 80% confluence was attained (i.e., the mixed cell monolayer comprises 80% of area). Thereafter, the cells were separated into four groups, and the mediums of all the groups were replaced by differentiation mediums supplemented with 2% horse serum. TNF-α (purchased from Sigma company) was then added into those mediums to provide final concentrations of 0, 2, 5, 10 ng/mL respectively. After being co-treated with the differentiation medium and TNF-α for 4 days, the mitochondrial membrane potential (MMP) and intracellular reactive oxidative stress (ROS) of the C2C12 cells were measured to serve as the index for model evaluation. Accordingly, a TNF-α induced muscle cell injury model was established. Finally, the group that was not treated with TNF-α (i.e., the concentration of TNF-α was 0 ng/mL) served as a basis for calculating the relative MMPs and intracellular ROSs of the other groups. The results are shown in FIG. 1 (all the data are presented as average values±SEM, n=6, analyzed with a t-test, *p<0.05, ***p<0.001).

Compound: C[C@@H]1O[C@@H](O[C@@H]2[C@@H](O)[C@H](OCCc3ccc(O)c(O)c3)O[C@H](CO)[C@H]2OC(=O)/C=C/c2ccc(O)c(O)c2)[C@H](O)[C@H](O)[C@H]1O [verbascoside]
- protection of C2C12 cells against TNF-α induced injury (survival rate, MMP, ROS) ([1]; 1 to 100 μg/mL): could not protect

Compound: C[C@@H]1O[C@@H](O[C@@H]2[C@@H](O)[C@H](OCCc3ccc(O)c(O)c3)O[C@H](COC(=O)/C=C/c3ccc(O)c(O)c3)[C@H]2O)[C@H](O)[C@H](O)[C@H]1O [isoacteoside]
- decrease in the MMP induced by TNF-α ([1]; 100 μg/mL): significantly ameliorated
- survival rate ([1]; 5 to 100 μg/mL): increased
- intracellular ROS ([1]; 10 to 100 μg/mL): significantly decreased

Compound: TNF-α
- intracellular reactive oxidative stress (ROS) (C2C12 cells; 5 ng/mL TNF-α): slightly increased
- mitochondrial membrane potential (MMP) (C2C12 cells; 5 ng/mL TNF-α): significantly decreased
- intracellular reactive oxidative stress (ROS) (C2C12 cells; 10 ng/mL TNF-α): significantly increased
- mitochondrial membrane potential (MMP) (C2C12 cells; 10 ng/mL TNF-α): significantly decreased

Compound: echinacoside
- concentration at which the protective effect (survival rate) became significant ([1]; 5 to 500 μg/mL tested): 100 µg/mL
- protective effect on MMP ([1]; 5 to 500 μg/mL): did not exhibit protective effect
- protective effect on ROS ([1]; 5 to 500 μg/mL): did not exhibit protective effect
- protective effect (survival rate) ([1]; lower concentration within 5 to 500 μg/mL): not significant
